Source: US20200055839A1 (priority 2017, published 2020)
pEC50: −log10 of the molar value.

Test system: NL-RLuc virus
Assay: Inhibition of HIV replication (NL-RLuc virus, luciferase readout in MT-2 cells)
Format: cell-based
Settings: Human immunodeficiency virus 1, MT2, 120 h, MT-2 cells infected with NL-RLuc virus, 5 days of incubation, 10% FBS, at least 2 experiments
Method in brief: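 MT-2 cells infected with NL4-3-derived virus carrying Renilla luciferase in place of part of nef, grown 5 days with serial compound dilutions in RPMI 1640/10% FBS. Virus growth read as luciferase expression. EC50 from median effect equation, at least 2 experiments.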

| Structure (SMILES) | pEC50 |
| --- | --- |
| COc1ccc(CCOc2ccc(-c3cnc(C)c([C@H](OC(C)(C)C)C(=O)O)c3N3CCC(C)(C)CC3)nc2)c(C)c1 [Example 292, (2S)-2-(tert-butoxy)-2-[4′-(4,4-dimethylpiperidin-1-yl)-5-[2-(4-methoxy-2-methylphenyl)ethoxy]-6′-methyl-[2,3′-bipyridine]-5′-yl]acetic acid] | 8.70 |
| Cc1nc(NCCCN2CCN(C)CC2)c(-c2ccc(OCCc3ccc(F)cc3)cc2)c(N2CCC(C)(C)CC2)c1[C@H](OC(C)(C)C)C(=O)O [Example 52, (S)-2-(tert-Butoxy)-2-(4-(4,4-dimethylpiperidin-1-yl)-5-(4-(4-fluorophenethoxy)phenyl)-2-methyl-6-((3-(4-methylpiperazin-1-yl)propyl)amino)pyridin-3-yl)acetic acid] | 9.00 |
| CCCCCCOc1ccc(-c2cnc(C)c([C@H](OC(C)(C)C)C(=O)O)c2N2CCC(C)(C)CC2)nc1 [Example 334, (2S)-2-(tert-butoxy)-2-[4′-(4,4-dimethylpiperidin-1-yl)-5-(hexyloxy)-6′-methyl-[2,3′-bipyridine]-5′-yl]acetic acid] | 8.40 |
| Cc1nc(NCc2ccn[nH]2)c(-c2ccc(OCCc3ccc(F)cc3)cc2)c(N2CCC(C)(C)CC2)c1[C@H](OC(C)(C)C)C(=O)O [Example 30, (S)-2-(6-(((1H-Pyrazol-5-yl)methyl)amino)-4-(4,4-dimethylpiperidin-1-yl)-5-(4-(4-fluorophenethoxy)phenyl)-2-methylpyridin-3-yl)-2-(tert-butoxy)acetic acid] | 8.70 |
| Cc1ncc(-c2cccc(F)c2C)c(N2CCC(C)(C)CC2)c1[C@H](OC(C)(C)C)C(=O)O [Example 160, (2S)-2-(tert-Butoxy)-2-[4-(4,4-dimethylpiperidin-1-yl)-5-(3-fluoro-2-methylphenyl)-2-methylpyridin-3-yl]acetic acid] | 7.89 |
| COc1c(F)cc(-c2c(CO)nc(C)c([C@H](OC(C)(C)C)C(=O)O)c2N2CCC(C)(C)CC2)cc1F [Example 139, (S)-2-(tert-Butoxy)-2-(5-(3,5-difluoro-4-methoxyphenyl)-4-(4,4-dimethylpiperidin-1-yl)-6-(hydroxymethyl)-2-methylpyridin-3-yl)acetic acid] | 7.57 |
| Cc1nc(Nc2ccc(C(=O)O)cn2)c(-c2ccc(OCCc3ccc(F)cc3)cc2)c(N2CCC(C)(C)CC2)c1[C@H](OC(C)(C)C)C(=O)O [Example 101, (S)-6-((5-(tert-Butoxy(carboxy)methyl)-4-(4,4-dimethylpiperidin-1-yl)-3-(4-(4-fluorophenethoxy)phenyl)-6-methylpyridin-2-yl)amino)nicotinic acid] | 8.00 |
| Cc1ncc(-c2cc(F)c(OCCc3ccc(F)cc3)cc2F)c(N2CCC(C)(C)CC2)c1[C@H](OC(C)(C)C)C(=O)O [Example 125, (2S)-2-(tert-Butoxy)-2-(5-{2,5-difluoro-4-[2-(4-fluorophenyl)ethoxy]phenyl}-4-(4,4-dimethylpiperidin-1-yl)-2-methylpyridin-3-yl)acetic acid] | 8.52 |
| COc1nc(-c2cnc(C)c([C@H](OC(C)(C)C)C(=O)O)c2N2CCC(C)(C)CC2)ccc1OCCc1ccc(F)cc1 [Example 249, (S)-2-(tert-Butoxy)-2-(4′-(4,4-dimethylpiperidin-1-yl)-5-(4-fluorophenethoxy)-6-methoxy-6′-methyl-[2, 3′-bipyridin]-5′-yl)acetic acid] | 8.70 |
| Cc1ncc(-c2cccc3ccccc23)c(N2CCC(C)(C)CC2)c1[C@H](OC(C)(C)C)C(=O)O [Example 182, (2S)-2-(tert-Butoxy)-2-[4-(4,4-dimethylpiperidin-1-yl)-2-methyl-5-(naphthalen-1-yl)pyridin-3-yl]acetic acid] | 7.57 |
| Cc1ncc(-c2ccc(O[C@@H](C)c3ccccc3)cn2)c(N2CCC(C)(C)CC2)c1[C@H](OC(C)(C)C)C(=O)O [Example 349, (2S)-2-(tert-butoxy)-2-[4′-(4,4-dimethylpiperidin-1-yl)-6′-methyl-5-[(1S)-1-phenylethoxy]-[2,3′-bipyridine]-5′-yl]acetic acid] | 9.00 |
| Cc1ncc(-c2ccc(OCCc3cccc(F)c3F)cn2)c(N2CCC(C)(C)CC2)c1[C@H](OC(C)(C)C)C(=O)O [Example 329, (2S)-2-(tert-butoxy)-2-{5-[2-(2,3-difluorophenyl)ethoxy]-4′-(4,4-dimethylpiperidin-1-yl)-6′-methyl-[2,3′-bipyridine]-5′-yl}acetic acid] | 9.30 |
| CC1(C)CCN(c2c(-c3ccc(CNc4ncnc5c4oc4ccccc45)c(F)c3)cnc(Cl)c2[C@H](OC(C)(C)C)C(=O)O)CC1 [Example 221, (S)-2-(5-(4-((Benzofuro[3,2-d]pyrimidin-4-ylamino)methyl)-3-fluorophenyl)-2-chloro-4-(4,4-dimethylpiperidin-1-yl)pyridin-3-yl)-2-(tert-butoxy)acetic acid] | 9.52 |
| Cc1ncc(-c2cnc(OCCc3c(F)cccc3Cl)c(F)c2)c(N2CCC(C)(C)CC2)c1[C@H](OC(C)(C)C)C(=O)O [Example 239, (S)-2-(tert-Butoxy)-2-(6′-(2-chloro-6-fluorophenethoxy)-4-(4,4-dimethylpiperidin-1-yl)-5′-fluoro-6-methyl-[3, 3′-bipyridin]-5-yl)acetic acid] | 8.52 |
| Cc1nc(Nc2cccc(F)n2)c(-c2ccc(OCCc3ccc(F)cc3)cc2)c(N2CCC(C)(C)CC2)c1[C@H](OC(C)(C)C)C(=O)O [Example 89, (S)-2-(tert-Butoxy)-2-(4-(4,4-dimethylpiperidin-1-yl)-5-(4-(4-fluorophenethoxy)phenyl)-6-((6-fluoropyridin-2-yl)amino)-2-methylpyridin-3-yl)acetic acid] | 7.89 |
| Cc1nc(Nc2ccncc2)c(-c2ccc(OCCc3ccc(F)cc3)c(F)c2)c(N2CCC(C)(C)CC2)c1[C@H](OC(C)(C)C)C(=O)O [Example 104, (S)-2-(tert-Butoxy)-2-(4-(4,4-dimethylpiperidin-1-yl)-5-(3-fluoro-4-(4-fluorophenethoxy)phenyl)-2-methyl-6-(pyridin-4-ylamino)pyridin-3-yl)acetic acid] | 9.15 |
| Cc1cc(F)c(F)c(-c2cnc(C)c([C@H](OC(C)(C)C)C(=O)O)c2N2CCC(C)(C)CC2)c1 [Example 170, (2S)-2-(tert-Butoxy)-2-[5-(2,3-difluoro-5-methylphenyl)-4-(4,4-dimethylpiperidin-1-yl)-2-methylpyridin-3-yl]acetic acid] | 7.72 |
| Cc1ncc(-c2cnc(OCC(C)(C)C)c(F)c2)c(N2CCC(C)(C)CC2)c1[C@H](OC(C)(C)C)C(=O)O [Example 375, (2S)-2-(tert-butoxy)-2-[4-(4,4-dimethylpiperidin-1-yl)-6′-(2,2-dimethylpropoxy)-5′-fluoro-6-methyl-[3,3′-bipyridine]-5-yl]acetic acid] | 8.10 |
| COc1c(F)cc(-c2c(CN3CCCCCCC3)nc(C)c([C@H](OC(C)(C)C)C(=O)O)c2N2CCC(C)(C)CC2)cc1F [Example 199, (2S)-2-{6-[(Azocan-1-yl)methyl]-5-(3,5-difluoro-4-methoxyphenyl)-4-(4,4-dimethylpiperidin-1-yl)-2-methylpyridin-3-yl}-2-(tert-butoxy)acetic acid] | 8.40 |
| CCCCNc1ccc(-c2cnc(C)c([C@H](OC(C)(C)C)C(=O)O)c2N2CCC(C)(C)CC2)nc1 [Example 441, (S)-2-(tert-Butoxy)-2-(5-(butylamino)-4′-(4,4-dimethylpiperidin-1-yl)-6′-methyl-[2, 3′-bipyridin]-5′-yl)acetic acid] | 8.15 |
| Cc1ncc(-c2cnc(O)c(F)c2)c(N2CCC(C)(C)CC2)c1[C@H](OC(C)(C)C)C(=O)O [Example 387, (2S)-2-(tert-butoxy)-2-[4-(4,4-dimethylpiperidin-1-yl)-5′-fluoro-6′-hydroxy-6-methyl-[3,3′-bipyridine]-5-yl]acetic acid] | 5.40 |
| COc1cccc(-c2cnc(C)c([C@H](OC(C)(C)C)C(=O)O)c2N2CCC(C)(C)CC2)c1 [Example 168, (2S)-2-(tert-Butoxy)-2-[4-(4,4-dimethylpiperidin-1-yl)-5-(3-methoxyphenyl)-2-methylpyridin-3-yl]acetic acid] | 8.40 |
| Cc1ncc(-c2cnc(O[C@H](C)C(C)C)c(F)c2)c(N2CCC(C)(C)CC2)c1[C@H](OC(C)(C)C)C(=O)O [Example 369, (2S)-2-(tert-butoxy)-2-[4-(4,4-dimethylpiperidin-1-yl)-5′-fluoro-6-methyl-6′-{[(2R)-3-methylbutan-2-yl]oxy}-[3,3′-bipyridine]-5-yl]acetic acid] | 8.70 |
| Cc1nc(-c2cnc(C)c([C@H](OC(C)(C)C)C(=O)O)c2N2CCC(C)(C)CC2)ccc1OCCc1ccc(F)cc1 [Example 232, (S)-2-(tert-Butoxy)-2-(4′-(4,4-dimethylpiperidin-1-yl)-5-(4-fluorophenethoxy)-6, 6′-dimethyl-[2, 3′-bipyridin]-5′-yl)acetic acid] | 8.22 |
| Cc1cc(-c2cnc(C)c([C@H](OC(C)(C)C)C(=O)O)c2N2CCC(C)(C)CC2)cnc1OCC(C)C [Example 428, (S)-2-tert-Butoxy-2-(4-(4,4-dimethylpiperidin-1-yl)-6′-isobutoxy-5′,6-dimethyl-3, 3′-bipyridin-5-yl)acetic acid] | 8.15 |
| Cc1ncc(-c2cccc3cccnc23)c(N2CCC(C)(C)CC2)c1[C@H](OC(C)(C)C)C(=O)O [Example 184, (2S)-2-(tert-Butoxy)-2-[4-(4,4-dimethylpiperidin-1-yl)-2-methyl-5-(quinolin-8-yl)pyridin-3-yl]acetic acid] | 8.10 |

Same assay, conditions: MT-2 cells infected with NL-RLuc virus, 5 days of incubation, 10% FBS, at least 2 experiments

| Structure (SMILES) | pEC50 |
| --- | --- |
| Cc1nc(Nc2ncccn2)c(-c2ccc(OCCc3ccc(F)cc3)c(F)c2)c(N2CCC(C)(C)CC2)c1[C@H](OC(C)(C)C)C(=O)O [Example 69, (S)-2-(tert-Butoxy)-2-(4-(4,4-dimethylpiperidin-1-yl)-5-(3-fluoro-4-(4-fluorophenethoxy)phenyl)-2-methyl-6-(pyrimidin-2-ylamino)pyridin-3-yl)acetic acid] | 8.52 |
